# Data as given in patent US7037656B2, “Methods and compositions for identifying ligands for nuclear receptors” (priority 2000, dated 2006).
# Columns and labels:
# Assay in all cases: Yeast 6x EcRE-lacZ β-galactosidase transactivation assay
# Format in all cases: cell-based, Aedes aegypti
# [1] = system: Aa ΔA/B EcR + Aa ΔA/B USP + GRIP1; details: RH 5992 10 μM, 4 hours, DMSO control 0.194
# Method: (§1) Briefly, yeast cells are cultured in 5 mL of YPD liquid medium overnight at 30° C. The cell culture was diluted 1:20 in YPD media and further grown until cell density reached an O.D of 0.6. at OD600. The cells were pelleted by centrifugation and washed with 10 mL of TE+0.1M lithium acetate. Cells are then resuspended in 10 mL TE+0.1M lithium acetate and incubated at 30° C. for 1 hour. Cells are collected and resuspended in 0.5 mL of TE+ 0.1M lithium acetate. Aliquots of cells (50 μL), were incubated for 15 minutes at 30° C. with 1–2 μg plasmid DNA in the presence of 5 μg of denatured salmon sperm DNA as DNA carrier. In the case of co-transformation, the indicated plasmids were added simultaneously. 50% polyethyleneglycol of molecular weight 4000, diluted in TE, was added to a final concentration of 35%. DMSO was added to the transformation solution simultaneously to a final concentration 3%. The samples were mixed well by vortexing and incubated for an additional 30 minutes at 30° C. The cell mixture is then heated for 15 minutes at 42° C. Cells were then collected and plated onto appropriate yeast selective media. Transformants of 4 plasmids are selected on the complete media without tryptophan, uracil, leucine and histidine.
# (§2) The yeast cells grown overnight in selective liquid media at 30° C. were diluted in prewarmed liquid selective media to 0.1 at OD600 (ODculture). 100 μl of the cell culture was spiked to each well of a.96-well microtiter plate. Ligand (2 μl diluted in DMSO) was added to each well giving a final concentration of DMSO of 2%. As a control, 2 μl of DMSO were also added to additional test wells. The final concentration of the tested compounds in the media is 10 μM. The cells were incubated in the presence of ligand in a shaker at 30° C. After 4 hours of incubation, 100 μl of 2× “Z” Sarcosine-ONPG buffer (120 mM Na2HPO4, 80 mM NaH2PO4, 20 mM KCl, 2 mM MgSO4, 100 mM beta-mercaptoethanol (Sigma), pH 7.0, 0.4% lauroyl sarcosine (Sigma), 4 mg/mL ONPG (Diagnostic Chemicals limited) was added to each well and the plate was further incubated at 37° C. The 2× “Z” Sarcosine-ONPG buffer is freshly prepared or stored at −20° C. prior to use. After incubation at 37° C. for 1 hour. The reaction was stopped by adding 100 μL of quenching solution 0.5 M Na2CO3 and OD405 (ODreaction) and beta-galactosidase activity was measured in a micro plate reader (Biotek) at a wave length of 405–450 nanometers. The effect of copper on enhancement of the transactivation response mediated by the ligands tested was studied by adding CuSO4 to the media to a final concentration of 10 μM.
# (§3) Using the transformation method described above, yeast were co-transformed with a reporter gene as shown in FIG. 2 and the expression vector encoding the full-length Aedes aegypti ecdysone receptor, Aa EcR (FIG. 7A) in the presence or absence of the Aa EcR heterodimer partner, Aa USP (a or b form, FIGS. 8A and 8B respectively). Transformed cells were incubated with DMSO alone as a control, or with a proprietary ecdysone receptor ligand (Rohm & Haas tebufenozide[RH5992]) at final concentration 10 μM for 4 hours. The samples were then assayed for β-galactosidase activity as described above. […] As the N-terminal portion of the AaEcR receptor is reported to play a role in ligand independent transactivation, an expression vector containing an N-terminal deletion in the Aa EcR was constructed (see FIG. 7B) and assessed in the β-galactosidase assays described above. […] Restoration of ligand dependent transactivation was observed only when the AaΔN EcR, AaUSP (a or b forms) and co-activator GRIP1 were coexpressed. As in the Drosophila system, the data obtained indicate that the efficiency of ligand-dependent transactivation of the ecdysone receptor in mosquito A. aegypti is dependent on the both heterodimer formation of EcR/USP and also upon proper interaction with co-activator GRIP1.
# [2] = system: Aa ΔA/B EcR + Aa USPa; details: 4 hours
# Method: as §1, §2, §3
# [3] = system: Aa ΔA/B EcR + Aa ΔA/B USP; details: RH 5992 10 μM, 4 hours, DMSO control 0.187
# Method: as §1, §2, §3
# [4] = system: Aa USPa; details: RH 5992 10 μM, 4 hours, DMSO control 0.210
# Method: as §1, §2, §3
# [5] = system: Aa USPb; details: RH 5992 10 μM, 4 hours, DMSO control 0.196
# Method: as §1, §2, §3
# [6] = system: Aa EcR + Aa USPb; details: RH 5992 10 μM, 4 hours, DMSO control 3.000
# Method: as §1, §2, §3
# [7] = system: Aa EcR + Aa USPa; details: RH 5992 10 μM, 4 hours, DMSO control 2.300
# Method: as §1, §2, §3
compound,measurement,setting,value
"CCc1ccc(C(=O)NN(C(=O)c2cc(C)cc(C)c2)C(C)(C)C)cc1 [RH 5992, tebufenozide]",β-galactosidase activity,[1],1.370
same,transactivation of the reporter gene (in words),"[2]; 10 μM, Aa EcR with N-terminal deletion, Aa USP present or absent, no GRIP1",incapable of transactivating the reporter gene
same,β-galactosidase activity,"[2]; RH 5992 10 μM, yeast, Aa ΔA/B EcR + Aa USPa, DMSO control 0.194",0.209
same,β-galactosidase activity,[3],0.196
same,β-galactosidase activity,[4],0.223
same,β-galactosidase activity,[5],0.210
same,β-galactosidase activity,[6],2.700
same,β-galactosidase activity,[7],2.453
